Laboratory results reported in patent US9700499B2, “Antimicrobial compositions” (GIVAUDAN SA, priority 2005, dated 2017).
“Also recorded” adds a separate entry of the source.

Legend:
Type in all cases: cell-based
[1] = tested on: Aspergillus niger ATCC 16404 spores; assay: Sporicidal effect of test compounds and preservatives in a cosmetic cream
Procedure: A cosmetic cream (pH 5.5) for application to the human skin is formulated as follows (in % w/w): […]
Glyceryl-monostearate, Sweet almond oil, Cetyl-stearyl-alcohol and Glyceryl dilaurate are melted at 80° C. Xanthan gum is dispersed into glycerine. Arginine is dissolved in water and heated to 75° C. The Xanthan gum-glycerin suspension is added to the heated water phase, the heated oil phase is added and the suspension is stirred at 300 rpm for 10 min whilst being cooled down slowly. Finally, a homogeneous emulsion is made with a high speed homogenizer at 5000 rpm.
Test samples of cream contain different amounts of preservatives and/or preservative enhancer. The preservative and preservative enhancer is added to an aliquot of 10 g of the cream in 50 ml tubes to a concentration (w/w) of 0.1-0.5% as shown in the table below. After addition of the preservative/preservative enhancer, the cream is thoroughly mixed to achieve a homogeneous distribution.
After 1-3 days of equilibration of the cream (storage at room temperature to achieve a homogenous partitioning of compounds between oil and water phase), to each sample 100 μl of a spore suspension of Aspergillus niger ATCC 16404 containing 3×10^7 spores/ml (prepared as described in example 1) is added. After regular test intervals, samples of 1 g cream are removed and added to 20 ml of a neutralizer solution containing 0.2% lecithin, 2% Tween 80 and 0.5% NaCl. These dilutions are vigorously shaken for 10 min until the cream is dissolved, and then aliquots of this solution are spread plated on potato dextrose agar containing 0.2% Tween 80. After 48 h to 72 h the number of surviving colony forming units (and therefore surviving spores) are counted.
The sporidical effect in cream (prepared as described in example 2) is compared when using the test compounds alone or in combination with phenoxyethanol, benzyl alcohol or 2-Phenylethanol.
The experiments described in example 2-4 are performed with varying concentrations of test compound and preservative as indicated in Table 5.

[2] = tested on: Aspergillus niger ATCC 16404 spores; assay: Sporicidal effect of test compounds in water
Procedure: Aspergillus niger ATCC 16404 spores are added to water to obtain a density of 3×10^5 spores/ml. In order to prepare the spores, the test strain is grown for 5 days on potato dextrose agar at room temperature. The spores are harvested with a solution containing 0.1% Tween 80, peptone 0.1% and NaCl 0.85% and the spore concentration is adjusted to the density indicated above.
Test compounds are dissolved in dipropyleneglycol to a concentration of 20%.
These stock solutions are added to 10 ml aliquots of the spore suspension to obtain a final concentration of the test compounds of 0.1%. The sporicidal effect is shown by a reduction of spore counts after 7 days.
The reduction factor is determined as follows. Aliquots of the above prepared suspension of microorganisms (here: spore suspension prepared as described above) are plated on a suitable agar medium (see above) and the developing colonies are counted both for samples with test compound and for a negative probe (water). The count of the negative control is divided by the count of the test compound and thereby the reduction factor is determined. A negative control (water) accordingly has a reduction factor of 1 (no effect on the microorganism).

[3] = tested on: Candida albicans ATCC 10231, Candida guilliermondii ATCC 6260 and Candida parapsilosis ATCC 22019; assay: Activity against yeasts in cosmetic cream (mixture of three yeast strains 1:1:1)
Procedure: The same procedure as described above except for the changes mentioned below is performed with a mixture of the three yeast strains Candida albicans ATCC 10231, Candida guilliermondii ATCC 6260 and Candida parapsilosis ATCC 22019 that replace the bacterial strains.
The yeast strains are grown in Sabouraud liquid medium, washed and suspended in saline and adjusted to 5×10^7 cfu (colony forming units) per ml. The Inoculum of the three strains is then pooled in a ratio of 1:1:1. For determining the reduction factor by counting of the colonies formed, the samples inoculated with the yeast strains are spread plated on potato dextrose, incubated until colonies have formed and counted.

[4] = tested on: Staphylococcus aureus (DSMZ 799) and Pseudomonas aeruginosa (ATCC 15442); assay: Activity against bacteria in cosmetic cream (mixed inoculum 1:1)
Procedure: As test organisms Staphylococcus aureus (DSMZ 799) and Pseudomonas aeruginosa (ATCC 15442) are used. The strains are grown overnight in Mueller-Hinton broth and adjusted to a cell density of 1×10^8 cfu (colony forming units) per ml.
The two bacterial strains are mixed in a ratio of 1:1 and 100 μl of this mixed inoculum is added to 10 ml aliquots of the cosmetic cream supplemented with test compounds as described in Example 2 in the concentration as indicated in the table below.
The resulting mixtures are incubated at room temperature and at the regular intervals samples are removed, suspended in neutralizer solution and diluted as described above (example 2).
Aliquots of these suspended and diluted samples are plated on tryptic soy agar supplemented with 0.5% Tween 80 and then incubated for 24 h at 37° C. Surviving bacteria are counted.

[5] = test compound 0.1% with 2-Phenylethanol 0.5%
[6] = test compound 0.1% alone, no preservative
[7] = test compound 0.1% with Phenoxyethanol 0.5%

O=Cc1ccc(O)cc1 [4-hydroxybenzaldehyde]
Spores/ml after 7 d ([1]; 0.1% test compound and 0.5% phenoxyethanol (Table 2)): <100 Spores/ml
Reduction factor ([1]; 0.1% test compound and 0.5% phenoxyethanol, 7 d (Table 2)): >737
Enhancing activity in cream ([1]; 0.1% test compound with phenoxyethanol, complete killing of spores within 7 days): excellent enhancing activity
Reduction factor A. niger, 7 d ([1]; test compound 0.05% w/w with preservative (phenoxyethanol) 0.5% w/w (Table 5)): 66
Reduction factor A. niger, 7 d ([1]; test compound 0.1% w/w with preservative (phenoxyethanol) 0.3% w/w (Table 5)): 295
Reduction factor A. niger, 7 d ([1]; test compound 0.1% w/w with preservative (phenoxyethanol) 0.5% w/w (Table 5)): >1180
Reduction factor A. niger, 7 d ([1]; test compound 0.1% w/w, preservative 0 (Table 5)): 2
Spores/ml after 7 d ([1]; test compound 0.1% with 2-Phenylethanol 0.25% + benzylalcohol 0.25%): <100 Spores/ml
Reduction factor ([1]; test compound 0.1% with 2-Phenylethanol 0.25% + benzylalcohol 0.25%, 7 d): >1040
Spores/ml after 7 d [1, 5]: <100 Spores/ml
Spores/ml after 7 d ([1]; test compound 0.1% with 2-Phenylethanol 0.5% + benzylalcohol 0.5%): <100 Spores/ml
Reduction factor ([1]; test compound 0.1% with 2-Phenylethanol 0.5% + benzylalcohol 0.5%, 7 d): >1040
Reduction factor ([1]; test compound 0.1% with 2-Phenylethanol 0.5%, 7 d): >1040
Spores/ml after 7 d ([1]; test compound (0.1% where given) with Phenoxyethanol 0.5% (Table 3)): <100 Spores/ml
Reduction factor ([1]; test compound (0.1% where given) with Phenoxyethanol 0.5%, 7 d (Table 3)): >1040
Spores/ml after 7 d ([1]; test compound alone (0.1% where given), no preservative (Table 3)): 1.0 × 10^5 Spores/ml
Reduction factor ([1]; test compound alone (0.1% where given), no preservative, 7 d (Table 3)): 1.04
Enhancing effect of the test compound in presence of the preservative compound (phenoxyethanol) ([1]; varying concentrations (Table 5)): enhancing effect
Reduction factor ([2]; 0.1% test compound in water, after 7 days, count of negative control divided by count of test compound): <2
Spores/ml ([2]; 0.1% test compound in water, spore count after 7 days): >1.2 × 10^5 Spores/ml
Sporicidal effect (reduction of spore counts) in water ([2]; test compound alone in water at 0.1%): no significant sporicidal effect; also recorded: No significant reduction of spore counts
Yeasts (cfu/g cream) 48 h [3, 6]: 7.4 × 10^3 cfu/g cream
Yeasts (cfu/g cream) 7 d [3, 6]: 2.2 × 10^5 cfu/g cream
Yeasts (cfu/g cream) 48 h [3, 5]: <200 cfu/g cream
Yeasts (cfu/g cream) 7 d [3, 5]: <200 cfu/g cream
Yeasts (cfu/g cream) 48 h [3, 7]: <200 cfu/g cream
Yeasts (cfu/g cream) 7 d [3, 7]: <200 cfu/g cream
Bacteria (cfu/g cream) 24 h [4, 6]: 3.8 × 10^3 cfu/g cream
Bacteria (cfu/g cream) 7 d [4, 6]: 1.28 × 10^4 cfu/g cream
Bacteria (cfu/g cream) 24 h [4, 5]: 1 × 10^3 cfu/g cream
Bacteria (cfu/g cream) 7 d [4, 5]: <200 cfu/g cream
Bacteria (cfu/g cream) 24 h [4, 7]: 1.9 × 10^4 cfu/g cream
Bacteria (cfu/g cream) 7 d [4, 7]: <200 cfu/g cream
